Results as given in PubChem BioAssay (NCI).
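Following 48 hours of exposure in 96-well plates, responses at five concentrations were used to interpolate endpoints linearly. TGI marks complete inhibition of growth.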

Experiments:
Assay in all cases: NCI tumour cell line growth inhibition, 48 h
786-0 renal = tested on: 786-0 renal
A498 renal = tested on: A498 renal
A549 NSCLC = tested on: A549 NSCLC
ACHN renal = tested on: ACHN renal
BT-549 breast = tested on: BT-549 breast
CAKI-1 renal = tested on: CAKI-1 renal
CCRF-CEM leukemia = tested on: CCRF-CEM leukemia
COLO 205 colon = tested on: COLO 205 colon
DU-145 prostate = tested on: DU-145 prostate
EKVX NSCLC = tested on: EKVX NSCLC
HCT-116 colon = tested on: HCT-116 colon
HCT-15 colon = tested on: HCT-15 colon
HL-60(TB) leukemia = tested on: HL-60(TB) leukemia
HOP-62 NSCLC = tested on: HOP-62 NSCLC
HOP-92 NSCLC = tested on: HOP-92 NSCLC
HS 578T breast = tested on: HS 578T breast
HT29 colon = tested on: HT29 colon
IGROV1 ovarian = tested on: IGROV1 ovarian
KM12 colon = tested on: KM12 colon
LOX IMVI melanoma = tested on: LOX IMVI melanoma
M14 melanoma = tested on: M14 melanoma
MALME-3M melanoma = tested on: MALME-3M melanoma
MCF7 breast = tested on: MCF7 breast
MDA-MB-231 breast = tested on: MDA-MB-231 breast
MDA-MB-435 = tested on: MDA-MB-435
MDA-N = tested on: MDA-N
MOLT-4 leukemia = tested on: MOLT-4 leukemia
NCI-H23 lung = tested on: NCI-H23 lung
NCI-H460 lung = tested on: NCI-H460 lung
NCI-H522 lung = tested on: NCI-H522 lung
NCI/ADR-RES ovarian = tested on: NCI/ADR-RES ovarian
OVCAR-3 ovarian = tested on: OVCAR-3 ovarian
OVCAR-4 ovarian = tested on: OVCAR-4 ovarian
OVCAR-5 ovarian = tested on: OVCAR-5 ovarian
OVCAR-8 ovarian = tested on: OVCAR-8 ovarian
PC-3 prostate = tested on: PC-3 prostate
RPMI-8226 leukemia = tested on: RPMI-8226 leukemia
RXF 393 renal = tested on: RXF 393 renal
SF-268 CNS = tested on: SF-268 CNS
SF-295 CNS = tested on: SF-295 CNS
SF-539 CNS = tested on: SF-539 CNS
SK-MEL-2 melanoma = tested on: SK-MEL-2 melanoma
SK-MEL-28 melanoma = tested on: SK-MEL-28 melanoma
SK-MEL-5 melanoma = tested on: SK-MEL-5 melanoma
SK-OV-3 ovarian = tested on: SK-OV-3 ovarian
SN12C renal = tested on: SN12C renal
SNB-19 CNS = tested on: SNB-19 CNS
SW-620 colon = tested on: SW-620 colon
T-47D breast = tested on: T-47D breast
TK-10 renal = tested on: TK-10 renal
U251 CNS = tested on: U251 CNS
UACC-257 melanoma = tested on: UACC-257 melanoma
UACC-62 melanoma = tested on: UACC-62 melanoma
HCC-2998 colon = tested on: HCC-2998 colon
K-562 leukemia = tested on: K-562 leukemia
NCI-H226 lung = tested on: NCI-H226 lung
SNB-75 CNS = tested on: SNB-75 CNS
SR leukemia = tested on: SR leukemia
UO-31 renal = tested on: UO-31 renal

With `CCCN1C(=O)CC(C)N(Cc2ccccc2Cl)C1=S` (centres undefined) the TGI (786-0 renal) was greater than 100 µM, the TGI (A498 renal) was 47 µM and the TGI (A549 NSCLC) was greater than 100 µM. For the same compound, the TGI (ACHN renal) was 88.4 µM, the TGI (BT-549 breast) was 57.5 µM and the TGI (CAKI-1 renal) was greater than 100 µM. The TGI (CCRF-CEM leukemia) was greater than 100 µM, the TGI (COLO 205 colon) was 32.9 µM and the TGI (DU-145 prostate) was greater than 100 µM. The TGI (EKVX NSCLC) was 93.7 µM, the TGI (HCT-116 colon) was 79.4 µM and the TGI (HCT-15 colon) was greater than 100 µM. The TGI (HL-60(TB) leukemia) was greater than 100 µM, the TGI (HOP-62 NSCLC) was greater than 100 µM and the TGI (HOP-92 NSCLC) was 69.3 µM. For the same compound, the TGI (HS 578T breast) was greater than 100 µM, the TGI (HT29 colon) was greater than 100 µM and the TGI (IGROV1 ovarian) was greater than 100 µM. It also gave a TGI (KM12 colon) of 92.5 µM, a TGI (LOX IMVI melanoma) of 54.9 µM and a TGI (M14 melanoma) of 79.9 µM. The TGI (MALME-3M melanoma) was 56.7 µM, the TGI (MCF7 breast) was 78.4 µM and the TGI (MDA-MB-231 breast) was 97 µM. The TGI (MDA-MB-435) was 65.9 µM, the TGI (MDA-N) was 60.6 µM and the TGI (MOLT-4 leukemia) was greater than 100 µM. For the same compound, the TGI (NCI-H23 lung) was 56.7 µM, the TGI (NCI-H460 lung) was greater than 100 µM and the TGI (NCI-H522 lung) was 56.6 µM. The TGI (NCI/ADR-RES ovarian) was 53.1 µM, the TGI (OVCAR-3 ovarian) was 88.8 µM and the TGI (OVCAR-4 ovarian) was greater than 100 µM. For the same compound, the TGI (OVCAR-5 ovarian) was greater than 100 µM, the TGI (OVCAR-8 ovarian) was 72.1 µM and the TGI (PC-3 prostate) was 55.7 µM. The TGI (RPMI-8226 leukemia) was 70.4 µM, the TGI (RXF 393 renal) was 21.9 µM and the TGI (SF-268 CNS) was 86.5 µM. It also gave a TGI (SF-295 CNS) greater than 100 µM, a TGI (SF-539 CNS) of 36 µM and a TGI (SK-MEL-2 melanoma) of 44.1 µM. For the same compound, the TGI (SK-MEL-28 melanoma) was 62.4 µM, the TGI (SK-MEL-5 melanoma) was 33.4 µM and the TGI (SK-OV-3 ovarian) was greater than 100 µM. The TGI (SN12C renal) was 94.8 µM, the TGI (SNB-19 CNS) was greater than 100 µM and the TGI (SW-620 colon) was greater than 100 µM. The TGI (T-47D breast) was 44.1 µM, the TGI (TK-10 renal) was 67.4 µM and the TGI (U251 CNS) was 67.8 µM. For the same compound, the TGI (UACC-257 melanoma) was 38 µM and the TGI (UACC-62 melanoma) was 46.3 µM.

Work on `CCCCC(=O)NS(=NC(=O)c1ccccc1)C(Cl)(Cl)Cl` (centres undefined) yielded a TGI (786-0 renal) greater than 100 µM, a TGI (A549 NSCLC) greater than 100 µM and a TGI (ACHN renal) greater than 100 µM. The TGI (BT-549 breast) was greater than 100 µM, the TGI (CCRF-CEM leukemia) was greater than 100 µM and the TGI (COLO 205 colon) was greater than 100 µM. It also gave a TGI (DU-145 prostate) greater than 100 µM, a TGI (EKVX NSCLC) greater than 100 µM and a TGI (HCC-2998 colon) greater than 100 µM. For the same compound, the TGI (HCT-116 colon) was greater than 100 µM, the TGI (HCT-15 colon) was greater than 100 µM and the TGI (HL-60(TB) leukemia) was greater than 100 µM. For the same compound, the TGI (HOP-62 NSCLC) was greater than 100 µM, the TGI (HOP-92 NSCLC) was greater than 100 µM and the TGI (HS 578T breast) was greater than 100 µM. It also gave a TGI (HT29 colon) greater than 100 µM, a TGI (IGROV1 ovarian) greater than 100 µM and a TGI (K-562 leukemia) greater than 100 µM. For the same compound, the TGI (KM12 colon) was greater than 100 µM, the TGI (LOX IMVI melanoma) was greater than 100 µM and the TGI (M14 melanoma) was greater than 100 µM. The TGI (MALME-3M melanoma) was greater than 100 µM, the TGI (MCF7 breast) was greater than 100 µM and the TGI (MDA-MB-231 breast) was greater than 100 µM. The TGI (MDA-MB-435) was greater than 100 µM, the TGI (MDA-N) was greater than 100 µM and the TGI (MOLT-4 leukemia) was greater than 100 µM. For the same compound, the TGI (NCI-H226 lung) was greater than 100 µM, the TGI (NCI-H23 lung) was greater than 100 µM and the TGI (NCI-H460 lung) was greater than 100 µM. The TGI (NCI/ADR-RES ovarian) was greater than 100 µM, the TGI (OVCAR-3 ovarian) was greater than 100 µM and the TGI (OVCAR-4 ovarian) was greater than 100 µM. The TGI (OVCAR-5 ovarian) was greater than 100 µM, the TGI (OVCAR-8 ovarian) was greater than 100 µM and the TGI (PC-3 prostate) was greater than 100 µM. It also gave a TGI (RPMI-8226 leukemia) greater than 100 µM, a TGI (RXF 393 renal) greater than 100 µM and a TGI (SF-268 CNS) greater than 100 µM. The TGI (SF-295 CNS) was greater than 100 µM, the TGI (SF-539 CNS) was greater than 100 µM and the TGI (SK-MEL-2 melanoma) was greater than 100 µM. It also gave a TGI (SK-MEL-28 melanoma) greater than 100 µM, a TGI (SK-MEL-5 melanoma) greater than 100 µM and a TGI (SK-OV-3 ovarian) greater than 100 µM. For the same compound, the TGI (SN12C renal) was greater than 100 µM, the TGI (SNB-19 CNS) was greater than 100 µM and the TGI (SNB-75 CNS) was greater than 100 µM. For the same compound, the TGI (SR leukemia) was greater than 100 µM, the TGI (SW-620 colon) was greater than 100 µM and the TGI (T-47D breast) was greater than 100 µM. The TGI (TK-10 renal) was greater than 100 µM, the TGI (U251 CNS) was greater than 100 µM and the TGI (UACC-257 melanoma) was greater than 100 µM. The TGI (UACC-62 melanoma) was greater than 100 µM and the TGI (UO-31 renal) was greater than 100 µM.
